Reference: patent US8697911B2, “Rho kinase inhibitors” (Boehringer Ingelheim International GmbH, priority 2010, dated 2014)

What was measured:
[1] = biological target: T1, ROCKII (1-543) (Homo sapiens (Human), UniProt O75116); assay: IMAP Assay (Assay 2); format: biochemical; details: IMAP fluorescence polarization; 100 μM ATP, 1 nM kinase
Experimental: This assay is performed using FAM S6 substrate peptide (Catalogue #R7184) and IMAP FP Screening Express Kit detection reagents from Molecular Devices (Sunnyvale, Calif.) in IMAP kinase reaction buffer (Tris-HCl, pH 7.2, 10 mM MgCl2, 0.05% NaN3, 0.1% phosphate-free BSA) containing 1 mM DTT. Test compounds dissolved in neat DMSO at 0.3 mg/mL are serially diluted 1 to 3 for concentration response in 100% DMSO. The DMSO serial dilutions are further diluted 33.33-fold in kinase reaction buffer, and 10 μL of this buffer dilution is transferred to Corning black 96-well half area NBS plates for a final top concentration of 3 μg/mL in 1% DMSO. 10 μL aliquot of 3 nM ROCKII (1-543) diluted in kinase reaction buffer is added to each assay well for a final concentration of 1 nM kinase. 10 μL of a mixture of 600 nM FAM S6 peptide and 300 μM ATP diluted in kinase reaction buffer is added to each well for a final concentration of 200 nM peptide and 100 μM ATP. The kinase reaction mixture is incubated for 60 minutes at room temperature. Positive controls are reaction mixtures containing no test compound and negative controls (blanks) are reaction mixtures containing no kinase. The kinase reaction is stopped by addition of 60 μL IMAP progressive binding reagent (Catalog #R7284) diluted 400-fold in 1× Binding buffer A. After 30 min of incubation at room temperature, the plates are read for fluorescence polarization on Analyst Plate Reader using Ex 485 nm, Em 530 nm, and FL 505 dichroic minor. The mP signals are converted to percent of control (POC) values using the formula: POC=100*(Signal−BCTRL)÷(PCTRL−BCTRL)
Where Signal is the test well signal, BCTRL is the average of background (negative control) well signals on the plate and PCTRL is the average of positive control well signals on the plate. For the concentration-responsive compounds, POC as a function of test compound concentration is fitted to a 4-parameter logistic equation of the form: Y=A+(B−A)/[1+(x/C)D]
Where A, B, C, and D are fitted parameters (parameter B is fixed at zero POC), and x and y are the independent and dependent variables, respectively. The IC50 is determined as the inflection point parameter, C.
Target sequence in this assay (O75116 1-543, species assumed): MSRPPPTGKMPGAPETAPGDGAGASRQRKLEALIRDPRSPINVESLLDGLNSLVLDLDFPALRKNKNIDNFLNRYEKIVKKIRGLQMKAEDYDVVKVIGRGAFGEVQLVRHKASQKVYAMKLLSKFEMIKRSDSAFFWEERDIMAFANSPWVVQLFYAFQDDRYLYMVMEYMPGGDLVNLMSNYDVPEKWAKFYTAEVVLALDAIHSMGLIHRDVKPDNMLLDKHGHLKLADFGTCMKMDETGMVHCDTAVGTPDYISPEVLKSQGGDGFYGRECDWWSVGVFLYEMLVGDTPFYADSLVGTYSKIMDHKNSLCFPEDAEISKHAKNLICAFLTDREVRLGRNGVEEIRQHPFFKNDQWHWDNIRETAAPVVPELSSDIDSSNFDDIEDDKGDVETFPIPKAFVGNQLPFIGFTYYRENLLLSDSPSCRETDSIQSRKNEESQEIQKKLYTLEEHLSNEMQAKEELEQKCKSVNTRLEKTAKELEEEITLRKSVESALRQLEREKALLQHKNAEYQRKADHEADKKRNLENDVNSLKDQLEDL

[2] = biological target: T1, ROCKII (1-543); assay: Luciferin-Luciferase Assay (Assay 1); format: biochemical; details: luciferin-luciferase residual ATP; 750 nM ATP, 7.5 nM kinase
Experimental: 1. Luciferin-Luciferase Assay
The activity of ROCKII (1-543) kinase is measured utilizing Cambrex PKLight ATP Detection Reagent, a homogeneous assay technology using luciferin-luciferase to quantify residual ATP. The assay is performed in 384-well low-volume, white, non-binding surface microtiter plates (Corning). The assay buffer is 25 mM HEPES, pH 7.5, 10 mM MgCl2, 50 mM KCl, 0.2% BSA, 0.01% CHAPS, 100 μM Na3VO4 and 0.5 mM DTT. Test compounds, dissolved in neat DMSO at 500 μg/mL, are serially diluted for dose response for a final starting concentration of 3 μg/mL in 1% DMSO of assay buffer. ROCKII (1-543) (62,408 Da) is diluted in assay buffer to a final concentration of 7.5 nM in a total volume of 15 μL. Positive controls are reaction mixtures containing no test compound; negative controls (blanks) are reaction mixtures containing no kinase. After 15 minutes of pre-incubation of the test compounds with the kinase, a mixture of ATP and peptide substrate ([…]) in assay buffer is added to each well for a final concentration of 750 nM ATP and 500 nM peptide, respectively. After 90 minutes of incubation of the kinase reaction at 28° C. temperature, 10 μL of PKLight ATP Detection Reagent (warmed to room temperature previously) is added to each well. The assay plate is incubated at room temperature for additional 15 minutes and then read on an Analyst in luminescence mode. Dose-response experiments for each of the test compounds are conducted in quadruplet. IC50 values of test compounds represent 50% response of the positive control from the dose-response curve.
Target sequence in this assay (O75116 1-543): as the sequence (O75116 1-543, species assumed) above

SMILES | IC50 [1] [nM] | IC50 [2] [nM]
CN1CCc2ccc(NC(=O)c3cccc(CNC(=O)c4cccc(-c5cn[nH]c5)c4)c3)cc2C1 [compound 3] | 5.1 | 4
CN1CCc2nc(NC(=O)c3cccc(CNC(=O)c4cccc(-c5cccnc5)c4)c3)sc2C1 [compound 4] | 73 | 22.5
CN1CCc2nc(NC(=O)c3cccc(CNC(=O)c4cccc(-c5cn[nH]c5)c4)c3)sc2C1 [compound 6] | 0.53 | 2
Cc1nnnn1-c1ccc(C(=O)NCc2cccc(C(=O)Nc3nc4c(s3)CN(C)CC4)c2)cc1 [compound 8] | 9.8 | 6
CN1CCc2nc(NC(=O)c3cccc(CNC(=O)c4csc(-c5cccnc5)n4)c3)sc2C1 [compound 14] | 7.9 | 4.8
CN1CCc2ccc(NC(=O)c3cccc(CNC(=O)c4cn5cc(C(N)=O)ccc5n4)c3)cc2C1 [compound 21] | 25 | 5.9
CN1CCc2nc(NC(=O)c3cccc(CNC(=O)c4csc(-c5ccncc5)n4)c3)sc2C1 [compound 22] | 37 | 5.8
N[C@H]1CCc2nc(NC(=O)c3cccc(CNC(=O)c4ccc(-c5csnn5)cc4)c3)sc2C1 [compound 26] | 40 | 7.6
CN1CCc2ccc(NC(=O)c3cccc(CNC(=O)c4csc(-c5cccnc5)n4)c3)cc2C1 [compound 27] | 45 | 9.8
N[C@@H]1CCc2nc(NC(=O)c3cccc(CNC(=O)c4cccc(-c5cn[nH]c5)c4)c3)sc2C1 [compound 28] | 0.45 | 1.1
CN1CCc2ccc(NC(=O)c3cccc(CNC(=O)c4ccc5cc(O)ccc5c4)c3)cc2C1 [compound 29] | 2 | 2.6
N[C@H]1CCc2nc(NC(=O)c3cccc(CNC(=O)c4cccc(-c5cn[nH]c5)c4)c3)sc2C1 [compound 30] | 0.16 | 0.72
CN1CCc2ccc(NC(=O)c3cccc(CNC(=O)c4ccc(C5=CSNN5)cc4)c3)cc2C1 [compound 31] | 4.6 | 4.6
Cc1nnnn1-c1ccc(C(=O)NCc2cccc(C(=O)Nc3nc4c(s3)C[C@H](N)CC4)c2)cc1 [compound 36] | 3 | 1.4
Cc1nnnn1-c1ccc(C(=O)NCc2cccc(C(=O)Nc3nc4c(s3)C[C@@H](N)CC4)c2)cc1 [compound 38] | 0.67 | 1.1
CN1CCc2ccc(NC(=O)c3cccc(CNC(=O)c4ccc(-n5ccnc5)cc4)c3)cc2C1 [compound 39] | 9.9 | 4.9

SMILES | IC50 [1] [nM] | IC50 [2] [nM]
N[C@@H]1CCc2nc(NC(=O)c3cccc(CNC(=O)c4cccc(-c5cccnc5)c4)c3)sc2C1 [compound 40] | 10 | 1.9
N[C@H]1CCc2nc(NC(=O)c3cccc(CNC(=O)c4cccc(-c5cccnc5)c4)c3)sc2C1 [compound 42] | 2 | 1.2
Cc1c(C(=O)NCc2cccc(C(=O)Nc3nc4c(s3)CN(C)CC4)c2)nnn1-c1nonc1N [compound 44] | 9.3 | 1.8
CN1CCc2nc(NC(=O)c3cccc(CNC(=O)c4nnn(-c5nonc5N)c4-c4ccccc4)c3)sc2C1 [compound 46] | 4.9 | 1.8
CN1CCc2ccc(NC(=O)c3cccc(CNC(=O)c4ccc(-c5cnco5)cc4)c3)cc2C1 [compound 49] | 26 | 2.6
CN1CCc2ccc(NC(=O)c3cccc(CNC(=O)c4cn5ccc(C(N)=O)cc5n4)c3)cc2C1 [compound 50, imidazo[1,2-a]pyridine-2,7-dicarboxylic acid 7-amide 2-[3-(2-methyl-1,2,3,4-tetrahydro-isoquinolin-7-ylcarbamoyl)-benzylamide]] | 11 | 2.9
CN1CCc2ccc(NC(=O)c3cccc(CNC(=O)c4cc5ccc(C#N)cc5[nH]4)c3)cc2C1 [compound 52] | 8.1 | 2.2
CN1CCc2ccc(NC(=O)c3cccc(CNC(=O)c4cc5ccc(C(N)=O)cc5[nH]4)c3)cc2C1 [compound 54] | 0.45 | 1.3
Cc1sc(-c2ccncc2)nc1C(=O)NCc1cccc(C(=O)Nc2nc3c(s2)CN(C)CC3)c1 [compound 58] | 1.2 | 2.1
CN1CCc2ccc(NC(=O)c3cccc(CNC(=O)c4ccc(-c5cnco5)s4)c3)cc2C1 [compound 64] | 1 | 1.5
CN1CCc2nc(NC(=O)c3cccc(CNC(=O)c4cn5ccc(C#N)cc5n4)c3)sc2C1 [compound 66] | 12 | 2.5
CN1CCc2ccc(NC(=O)c3cccc(CNC(=O)c4cccc(-c5ccncc5)c4)c3)cc2C1 [compound 69] | – | 44.5
CN1CCc2nc(NC(=O)c3cccc(CNC(=O)c4cc(-c5ccncc5)n[nH]4)c3)sc2C1 [compound 74] | 0.23 | 1.3
Cc1nc(-c2ccncc2)sc1C(=O)NCc1cccc(C(=O)Nc2nc3c(s2)CN(C)CC3)c1 [compound 76] | 1.4 | 1.2
CN1CCc2ccc(NC(=O)c3cccc(CNC(=O)c4cc5cc(C#N)ccc5[nH]4)c3)cc2C1 [compound 80] | 0.58 | 1.5

Results, then the compound that gave them:

IC50 [1] [nM] | IC50 [2] [nM] | SMILES
– | 45.7 | CN1CCc2nc(NC(=O)c3cccc(CNC(=O)c4cn5cc(C#N)ccc5n4)c3)sc2C1 [compound 88]
– | 47 | CCn1c(C(=O)NCc2cccc(C(=O)Nc3ccc4c(c3)CN(C)CC4)c2)cc2cc(C#N)ccc21 [compound 102]
– | 15.5 | CN1CCc2nc(NC(=O)c3cccc(CNC(=O)c4ccc(-c5cccnc5)s4)c3)sc2C1 [compound 110]
– | 14.5 | Cc1ncc(-c2ccc(C(=O)NCc3cccc(C(=O)Nc4nc5c(s4)CN(C)CC5)c3)s2)o1 [compound 116]
– | 24 | CCn1c(C(=O)NCc2cccc(C(=O)Nc3ccc4c(c3)CN(C)CC4)c2)cc2ccc(C#N)cc21 [compound 118]
– | 27.5 | CN1CCc2ccc(NC(=O)c3cccc(CNC(=O)C4=NC5=CC=NC(=O)C5C=C4)c3)cc2C1 (centres unmarked) [compound 122]
– | 80 | CN1CCc2ccc(NC(=O)c3cccc(CNC(=O)c4cc5cccc(O)c5cc4O)c3)cc2C1 [compound 133]
– | 49.3 | CN1CCc2ccc(NC(=O)c3cccc(CNC(=O)c4ccc(-c5nnco5)cc4)c3)cc2C1 [compound 145]
– | 22.5 | CN1CCc2ccc(NC(=O)c3cccc(CNC(=O)c4ccc5[nH]c(=O)ccc5c4)c3)cc2C1 [compound 175]
– | 68 | CN1CCc2ccc(NC(=O)c3cccc(CNC(=O)c4ccc(-c5ccc(N)nc5)s4)c3)cc2C1 [compound 177]
– | 81 | CN1CCc2ccc(NC(=O)c3cccc(CNC(=O)c4ccc5c(c4)OCC(=O)N5)c3)cc2C1 [compound 182]
– | 18 | CN1CCc2ccc(NC(=O)c3cccc(CNC(=O)c4ccc5c(c4)CCC(=O)N5)c3)cc2C1 [compound 184]
– | 14.5 | CN1CCc2ccc(NC(=O)c3cccc(CNC(=O)c4cccc(-n5ccnc5)c4)c3)cc2C1 [compound 186]
– | 91.5 | CN1CCc2ccc(NC(=O)c3cccc(CNC(=O)c4cc(-c5cccnc5)[nH]n4)c3)cc2C1 [compound 188]
– | 38 | Cc1nc2cnccc2n1-c1ccc(C(=O)NCc2cccc(C(=O)Nc3ccc4c(c3)CN(C)CC4)c2)cc1 [compound 198]
– | 86 | CCN1C(=O)CSc2ccc(C(=O)NCc3cccc(C(=O)Nc4ccc5c(c4)CN(C)CC5)c3)cc21 [compound 210]
